Experimental data from patent US7244692B2, “Substituted benzoylcyclohexane diones for use as herbicides” (Bayer Aktiengesellschaft, priority 1999, dated 2007).
Where two headings read alike, the source gives them in different places.

Columns and labels:
[1] = logP determination by HPLC, reverse-phase column (C 18), EEC Directive 79/831 Annex V.A8; format: physicochemical
Description: Temperature: 43° C. • (a) Mobile phases for the determination in the acidic range: 0.1% aqueous phosphoric acid, acetonitrile; linear gradient from 10% acetonitrile to 90% acetonitrile—the corresponding test results in Table 1 are labelled ^a). • (b) Mobile phases for the determination in the neutral range: 0.01 molar aqueous phosphate buffer solution, acetonitrile; linear gradient from 10% acetonitrile to 90% acetonitrile—the corresponding test results in Table 1 are labelled ^b).

[2] = system: weeds; assay: Post-Emergence Test (Example B); format: in vivo; details: test plants of 5-15 cm sprayed, rated after three weeks
Description: (§1) • Solvent: 5 parts by weight of acetone • Emulsifier: 1 part by weight of alkylaryl polyglycol ether
(§2) To produce a suitable preparation of active compound, 1 part by weight of active compound is mixed with the stated amount of solvent, the stated amount of emulsifier is added and the concentrate is diluted with water to the desired concentration.
Test plants of a height of 5-15 cm are sprayed with the preparation of active compound such that the particular amounts of active compound desired are applied per unit area. The concentration of the spray liquor is chosen such that the particular amounts of active compound desired are applied in 1000 l of water/ha.
After three weeks, the degree of damage to the plants is rated in % damage in comparison to the development of the untreated control.
The figures denote: • 0%=no effect (like untreated control) • 100%=total destruction

[3] = system: weeds; assay: Pre-Emergence Test (Example A); format: in vivo; details: soil sprayed 24 hours after sowing, rated after three weeks
Description: as §1, §2
Seeds of the test plants are sown in normal soil. After 24 hours, the soil is sprayed with the preparation of active compound such that the particular amount of active compound desired is applied per unit area. The concentration of active compound in the spray liquor is chosen such that the particular amount of active compound desired is applied in 1000 litres of water per hectare.
After three weeks, the degree of damage to the plants is rated in % damage in comparison to the development of the untreated control. The figures denote: • 0%=no effect (like untreated control) • 100%=total destruction

[4] = labelled a): acidic range, 0.1% aqueous phosphoric acid/acetonitrile, linear gradient 10% to 90% acetonitrile, 43° C.
[5] = no a)/b) label printed, mobile phase not given

| Compound | logP [1] | logP [1, 4] | activity against weeds (degree of damage) [2] | further results |
| --- | --- | --- | --- | --- |
| CCCN1CCNC1=O [(VI-5)] | 0.55^a) | – | – | – |
| CCCN1CCCNC1=O [(VI-15)] | logP = 0.76^a) | – | – | – |
| CCN1CCCCNC1=O [(VI-30)] | logP = 1.09 | – | – | – |
| CN1CCN(Cc2c(Cl)ccc(C(=O)C3C(=O)CCCC3=O)c2Cl)C1=O [Example 1, 2-[2,4-dichloro-3-[(3-methyl-2-oxo-imidazolidin-1-yl)-methyl]-benzoyl]-1,3-cyclohexanedione] | – | – | strong activity against weeds | activity against weeds (degree of damage) [3]: strong activity against weeds |
| CC1CC(=O)C(C(=O)c2ccc(Cl)c(CN3CCCN(C)C3=O)c2Cl)C(=O)C1 (stereo not shown) [Example 2] | – | logP = 2.55^a) | strong activity against weeds | activity against weeds (degree of damage) [3]: strong activity against weeds |
| CN1CCCN(Cc2c(Cl)ccc(C(=O)C3C(=O)CC(C)(C)CC3=O)c2Cl)C1=O [Example 3] | – | logP = 2.79^a) | strong activity against weeds | activity against weeds (degree of damage) [3]: strong activity against weeds |
| CN1CCCN(Cc2c(Cl)ccc(C(=O)C3C(=O)CCC(C)(C)C3=O)c2Cl)C1=O (stereo not shown) [Example 4] | – | logP = 2.89^a) | strong activity against weeds | activity against weeds (degree of damage) [3]: strong activity against weeds |
| CC(C)C1CC(=O)C(C(=O)c2ccc(Cl)c(CN3CCCN(C)C3=O)c2Cl)C(=O)C1 (stereo not shown) [Example 5] | – | logP = 3.22^a) | strong activity against weeds | – |
| CN1CCCN(Cc2c(Cl)ccc(C(=O)C3C(=O)CC(c4ccccc4)CC3=O)c2Cl)C1=O (stereo not shown) [Example 6] | – | logP = 3.21^a) | strong activity against weeds | – |
| CC1CC(=O)C(C(=O)c2ccc(Cl)c(CN3CCN(C)C3=O)c2Cl)C(=O)C1 (stereo not shown) [Example 7] | – | logP = 2.43^a) | strong activity against weeds | activity against weeds (degree of damage) [3]: strong activity against weeds |
| CN1CCN(Cc2c(Cl)ccc(C(=O)C3C(=O)CC(C)(C)CC3=O)c2Cl)C1=O [Example 8] | – | logP = 2.67^a) | strong activity against weeds | activity against weeds (degree of damage) [3]: strong activity against weeds |
| CN1CCN(Cc2c(Cl)ccc(C(=O)C3C(=O)CCC(C)(C)C3=O)c2Cl)C1=O (stereo not shown) [Example 9] | – | logP = 2.75^a) | strong activity against weeds | activity against weeds (degree of damage) [3]: strong activity against weeds |
| CC(C)C1CC(=O)C(C(=O)c2ccc(Cl)c(CN3CCN(C)C3=O)c2Cl)C(=O)C1 (stereo not shown) [Example 10] | – | logP = 3.09^a) | strong activity against weeds | – |
| CN1CCN(Cc2c(Cl)ccc(C(=O)C3C(=O)CC(c4ccccc4)CC3=O)c2Cl)C1=O (stereo not shown) [Example 11] | – | logP = 3.10^a) | strong activity against weeds | – |
| CCN1CCN(Cc2c(Cl)ccc(C(=O)C3C(=O)CC(C)CC3=O)c2Cl)C1=O (stereo not shown) [Example 12] | – | logP = 2.71^a) | strong activity against weeds | activity against weeds (degree of damage) [3]: strong activity against weeds |
| CCN1CCN(Cc2c(Cl)ccc(C(=O)C3C(=O)CCCC3=O)c2Cl)C1=O [Example 13] | – | logP = 2.37^a) | strong activity against weeds | activity against weeds (degree of damage) [3]: strong activity against weeds |
| CCN1CCN(Cc2c(Cl)ccc(C(=O)C3C(=O)CC(C)(C)CC3=O)c2Cl)C1=O [Example 14] | – | logP = 2.96^a) | strong activity against weeds | – |
| CCN1CCN(Cc2c(Cl)ccc(C(=O)C3C(=O)CCC(C)(C)C3=O)c2Cl)C1=O (stereo not shown) [Example 15] | logP = 3.07^a) | – | – | – |
| CCN1CCN(Cc2c(Cl)ccc(C(=O)C3C(=O)CC(C(C)C)CC3=O)c2Cl)C1=O (stereo not shown) [Example 16] | – | logP = 3.40^a) | strong activity against weeds | – |
| CCN1CCN(Cc2c(Cl)ccc(C(=O)C3C(=O)CC(c4ccccc4)CC3=O)c2Cl)C1=O (stereo not shown) [Example 17] | – | logP = 3.38^a) | strong activity against weeds | – |
| COc1c(C(=O)C2C(=O)CCCC2=O)ccc(Cl)c1CN1CCCN(C)C1=O [Example 18] | – | logP = 2.05^a) | strong activity against weeds | activity against weeds (degree of damage) [3]: strong activity against weeds |
| COc1c(C(=O)C2C(=O)CCCC2=O)ccc(Cl)c1CN1CCN(C)C1=O [Example 19] | logP = 2.00^a) | – | – | – |
| CN1CCN(Cc2c(Cl)ccc(C(=O)C3C(=O)CC4(CCC4)CC3=O)c2Cl)C1=O [Example 20] | logP = 2.83^a) | – | – | – |

| Compound | logP [1] | logP [1, 4] | activity against weeds (degree of damage) [2] | further results |
| --- | --- | --- | --- | --- |
| CCN1CCN(Cc2c(Cl)ccc(C(=O)C3C(=O)CC4(CCC4)CC3=O)c2Cl)C1=O [Example 21] | logP = 3.15^a) | – | – | – |
| CN1CCN(Cc2c(S(C)(=O)=O)ccc(C(=O)C3C(=O)CCCC3=O)c2Cl)C1=O [Example 22] | logP = 1.70^a) | – | – | – |
| CCN1CCN(Cc2c(S(C)(=O)=O)ccc(C(=O)C3C(=O)CCCC3=O)c2Cl)C1=O [Example 23] | logP = 1.91^a) | – | – | – |
| CN1CCN(Cc2c(F)ccc(C(=O)C3C(=O)CCCC3=O)c2Cl)C1=O [Example 24] | – | logP = 1.96^a) | strong activity against weeds | activity against weeds (degree of damage) [3]: strong activity against weeds |
| CCN1CCN(Cc2cc(C(F)(F)F)ccc2C(=O)C2C(=O)CCCC2=O)C1=O [Example 25] | logP = 2.68^a) | – | – | – |
| CN1CCCN(Cc2c(S(C)(=O)=O)ccc(C(=O)C3C(=O)CCCC3=O)c2Cl)C1=O [Example 41] | logP = 1.73^a) | – | – | – |
| CCCN1CCN(Cc2c(Cl)ccc(C(=O)C3C(=O)CCCC3=O)c2Cl)C1=O [Example 46] | logP = 2.69^a) | – | – | – |
| CCCCN1CCN(Cc2c(Cl)ccc(C(=O)C3C(=O)CCCC3=O)c2Cl)C1=O [Example 47] | logP = 3.08^a) | – | – | – |
| CC(C)CN1CCN(Cc2c(Cl)ccc(C(=O)C3C(=O)CCCC3=O)c2Cl)C1=O [Example 48] | logP = 3.03^a) | – | – | – |
| CN1CCCN(Cc2cc(C(F)(F)F)ccc2C(=O)C2C(=O)CCCC2=O)C1=O [Example 49] | logP = 2.59^a) | – | – | – |
| CCN1CCN(Cc2c(F)ccc(C(=O)C3C(=O)CCCC3=O)c2Cl)C1=O [Example 50] | logP = 2.18^a) | – | – | – |
| CN1CCN(Cc2cc(C(F)(F)F)ccc2C(=O)C2C(=O)CCCC2=O)C1=O [Example 51] | logP = 2.41^a) | – | – | – |
| CCN1CCN(Cc2c(Cl)ccc(C(=O)OC)c2Cl)C1=O [IV-2] | – | logP = 2.26^a) | – | – |
| CCN1CCN(Cc2c(S(C)(=O)=O)ccc(C(=O)OC)c2Cl)C1=O [IV-3] | – | logP = 1.55^a) | – | – |
| COC(=O)c1ccc(S(C)(=O)=O)c(CN2CCN(C)C2=O)c1Cl [IV-4] | – | logP = 1.55^a) | – | – |
| COC(=O)c1ccc(Cl)c(CN2CCN(C)C2=O)c1OC [IV-5] | – | logP = 1.92^a) | – | – |
| COC(=O)c1ccc(Cl)c(CN2CCCN(C)C2=O)c1Cl [IV-6] | – | logP = 2.07^a) | – | – |
| COC(=O)c1ccc(Cl)c(CN2CCCN(C)C2=O)c1OC [IV-10] | – | logP = 2.03^a) | – | – |
| CCN1CCN(Cc2cc(C(F)(F)F)ccc2C(=O)OC)C1=O [IV-11] | – | logP = 2.62^a) | – | – |
| CCCN1CCN(Cc2c(Cl)ccc(C(=O)OC)c2Cl)C1=O [IV-12] | – | – | – | logP [1, 5]: logP = 2.62 |
| COC(=O)c1ccc(Cl)c(CN2CCN(C(C)C)C2=O)c1Cl [IV-13] | – | – | – | logP [1, 5]: logP = 2.56 |
| CCCCN1CCN(Cc2c(Cl)ccc(C(=O)OC)c2Cl)C1=O [IV-15] | – | – | – | logP [1, 5]: logP = 3.0 |
| COC(=O)c1ccc(Cl)c(CN2CCN(CC(C)C)C2=O)c1Cl [IV-16] | – | – | – | logP [1, 5]: logP = 2.95 |

Second part, led by results:

| logP [1] | logP [1, 4] | Compound | activity against weeds (degree of damage) [2] | further results |
| --- | --- | --- | --- | --- |
| logP = 2.33^a) | – | COC(=O)c1ccc(S(C)(=O)=O)c(CBr)c1Cl [V-2] | – | – |
| logP = 1.87^a) | – | COC(=O)c1ccc(S(C)(=O)=O)cc1CBr [V-6] | – | – |
